Measured values as given in the CheMixHub ionic liquid set.
Several values for one entry are separate records, joined by “and”; a condition that tells them apart may be missing. Identical values can stand only once.

Test: xn = mol fraction of the nth substance listed
Conditions: 101.3 kPa

CCCC[N+]1(C)CCCCC1.F[P-](F)(F)(F)(F)F + CCCC[n+]1cccc(C)c1.F[P-](F)(F)(F)(F)F + CCCC[N+]1(C)CCCC1.F[P-](F)(F)(F)(F)F
viscosity
Conditions | 348.15 K | 353.15 K | 358.15 K | 363.15 K
x2 = 0.2, x1 = 0.32 | – | 98 mPa·s | 80 mPa·s | 66 mPa·s
x2 = 0.3, x1 = 0.28 | – | 84 mPa·s | 69 mPa·s | 57 mPa·s
x2 = 0.4, x1 = 0.06 | – | 60 mPa·s | 50 mPa·s | 42 mPa·s
x2 = 0.4, x1 = 0.12 | – | 64 mPa·s | 53 mPa·s | 45 mPa·s
x2 = 0.4, x1 = 0.18 | – | 66 mPa·s | 55 mPa·s | 46 mPa·s
x2 = 0.4, x1 = 0.24 | – | 71 mPa·s and 72 mPa·s | 59 mPa·s | 49 mPa·s
x2 = 0.4, x1 = 0.3 | – | 75 mPa·s | 62 mPa·s | 51 mPa·s
x2 = 0.4, x1 = 0.36 | – | 79 mPa·s | 65 mPa·s | 54 mPa·s
x2 = 0.4, x1 = 0.42 | – | 83 mPa·s | 68 mPa·s | 56 mPa·s
x2 = 0.4, x1 = 0.48 | – | 88 mPa·s | 71 mPa·s | 59 mPa·s
x2 = 0.4, x1 = 0.54 | – | 93 mPa·s | 75 mPa·s | 62 mPa·s
x2 = 0.5, x1 = 0.2 | – | 62 mPa·s | 51 mPa·s | 43 mPa·s
x2 = 0.6, x1 = 0.16 | – | 54 mPa·s | 45 mPa·s | 38 mPa·s
x2 = 0.7, x1 = 0.12 | – | 47 mPa·s | 39 mPa·s | 33 mPa·s
x2 = 0.8, x1 = 0.08 | 50 mPa·s | 42 mPa·s | 35 mPa·s | 30 mPa·s
x2 = 0.9, x1 = 0.04 | 45 mPa·s | 37 mPa·s | 31 mPa·s | 27 mPa·s
